Measured values from patent publication US4880938A, “Amino acid analogs” (priority 1986, dated 1989).
Where a SMILES comes first, the peptide text is derived from it. [ ]: non-standard residue; d: D form. The star is where a group is joined. sY = N[C@@H](Cc1ccc(OS(=O)(=O)O)cc1)C(=O)O; Cbz = O=C(OCc1ccccc1)*; Boc = CC(C)(C)OC(=O)*

Legend:
gastrin = conditions: background, in vitro; cited from earlier work
[1] = target: T1, CCK receptor (brain, cerebral cortex) (Cavia porcellus, UniProt H0VZC5); experiment: 125I-CCK-33 receptor binding (brain) method; design: species or system guinea pig (male Hartley); conditions: 125I-CCK-33, guinea pig cerebral cortex, 25° C., 2 hours
T1 construct: The cerebral cortex was dissected and used as a receptor source; from tissue; host or cells: cerebral cortex of male Hartley guinea pigs, membrane homogenate
T1 sequence (H0VZC5 1-426): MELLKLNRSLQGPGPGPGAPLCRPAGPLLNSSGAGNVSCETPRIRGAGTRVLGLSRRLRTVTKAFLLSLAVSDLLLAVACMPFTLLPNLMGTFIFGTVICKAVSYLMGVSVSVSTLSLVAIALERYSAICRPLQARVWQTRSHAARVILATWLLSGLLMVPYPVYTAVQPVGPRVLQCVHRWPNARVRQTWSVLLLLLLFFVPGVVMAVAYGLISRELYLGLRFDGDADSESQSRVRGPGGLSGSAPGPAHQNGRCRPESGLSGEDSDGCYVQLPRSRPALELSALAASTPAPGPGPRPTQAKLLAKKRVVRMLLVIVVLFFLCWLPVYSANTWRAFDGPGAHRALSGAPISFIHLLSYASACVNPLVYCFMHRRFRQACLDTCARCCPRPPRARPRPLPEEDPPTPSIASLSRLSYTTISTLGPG
From the text: (§1) Screening of the novel compounds according to the present invention to determine biological activity and obtain an IC50 value for them, in order to identify significant CCK-antagonism, may be accomplished using an ^125 I-CCK receptor binding assay and in vitro isolated tissue preparations. To identify significant gastrin antagonism, ^125 I-gastrin and ^3 H-pentagastrin binding assays are used. These tests involve the following:
CCK receptor binding (brain) method
CCK-33 was radiolabeled and the binding was performed according to the description for the pancreas method, with modifications according to Saito et al., J. Neurochem., 37, 483-490, 1981.
Male Hartley guinea pigs (300-500 g) were sacrificed by decapitation, and the brains were removed and placed in ice-cold 50 mM Tris HCl plus 7.58 g/l Trizma-7.4 [pH 7.4 at 25° C.]. The cerebral cortex was dissected and used as a receptor source and each gram of fresh guinea pig brain tissue was homogenized in 10 ml of Tris/Trizma buffer with a Brinkmann polytron PT-10. The homogenates were centrifuged at 42,000 g for 15 minutes, then the resulting pellets were resuspended in 200 volumes of binding assay buffer (10 mM N-2-hydroxy-ethyl-piperazine-N'-2-ethane-sulfonic acid (HEPES), pH 7.7 at 25° C., 5 mM MgCl2, 1 mM ethyl glycol-bis-(β-amino-ethyl-ether-N,N'-tetraacetic acid (EGTA), 0.4% BSA (bovine serum albumin) and 0.25 mg/ml bacitracin, pH 6.5).
The remainder of the binding assay method was as described for the pancreas method, except that the reaction mixtures were incubated at 25° C. for 2 hours before centrifugation.

[2] = target: T2, Gastrin receptor (gastric glands) (Cavia porcellus, UniProt H0VZC5); experiment: 125I-gastrin receptor binding in guinea pig gastric glands; design: species or system guinea pig (male Hartley); conditions: 25° C., 30 minutes
T2 construct: Gastric mucosa from male Hartley guinea pigs (300-500 g body weight); from tissue; host or cells: isolated gastric mucosal glands of male Hartley guinea pigs
T2 sequence (H0VZC5 1-426): T1 sequence (H0VZC5 1-426)
From the text: as §1
Gastrin Receptor Binding in Guinea Pig Gastric Glands
Guinea pig gastric mucosal glands were prepared by the procedure of Berglingh and Obrink, Acta Physiol. Scand. 96: 150 (1976), with a slight modification according to Praissman et al. C. J. Receptor Res. 3: (1983). Gastric mucosa from male Hartley guinea pigs (300-500 g body weight) were washed thoroughly and minced with fine scissors in standard buffer consisting of the following: 130 mM NaCl, 12 mM NaHCO3, 3 mM NaH2 PO4, 3 mM Na2 HPO4, 3 mM K2 HPO4, 2 mM MgSO4, 1 mM CaCl2, 5 mM glucose and 4 mM L-glutamine, 25 mM HEPES at pH 7.4. […]
The washed guinea pig gastric glands were resuspended in 25 ml of standard buffer containing 0.25 mg/ml of bacitracin. […] The radioactivity of the filters was measured using a Beckman gamma 5500 for ^125 I-gastrin or liquid scintillation counting for ^3 H-pentagastrin.

CCK receptor = conditions: background, structure-function studies; cited from earlier work
CCK receptor (pancreas) = target: T3, CCK receptor (pancreas) (Rattus norvegicus, UniProt P30551); experiment: 125I-CCK-33 receptor binding (pancreas) method; design: species or system rat (male Sprague-Dawley); conditions: protease inhibitors added to binding assay buffer
T3 construct: The whole pancreas of a male Sprague-Dawley rat (200-350 g); from tissue; host or cells: whole pancreas of male Sprague-Dawley rat, membrane homogenate
T3 sequence (P30551 1-444): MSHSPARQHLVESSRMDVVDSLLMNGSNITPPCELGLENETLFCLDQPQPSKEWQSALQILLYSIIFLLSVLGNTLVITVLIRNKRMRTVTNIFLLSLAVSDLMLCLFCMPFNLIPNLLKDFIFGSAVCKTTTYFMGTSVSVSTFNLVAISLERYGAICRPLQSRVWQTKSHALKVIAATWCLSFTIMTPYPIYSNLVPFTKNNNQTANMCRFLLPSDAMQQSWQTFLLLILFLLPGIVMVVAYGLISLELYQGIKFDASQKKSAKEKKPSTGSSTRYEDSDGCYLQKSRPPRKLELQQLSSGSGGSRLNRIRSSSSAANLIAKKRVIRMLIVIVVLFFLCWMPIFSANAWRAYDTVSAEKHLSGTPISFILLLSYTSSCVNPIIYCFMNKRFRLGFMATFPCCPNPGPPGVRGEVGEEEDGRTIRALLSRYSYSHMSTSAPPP
From the text: as §1, with “To identify significant gastrin antagonism, ^125 I-gastrin and ^3 H-pentagastrin binding assays are used.” left out
CCK receptor binding (pancreas) method
CCK-33 was radiolabeled with ^125 I-Bolton Hunter reagent (2000 Ci/mmole), as described by Sankara et al. (J. Biol. Chem., 254, 9349-9351, 1979).
The whole pancreas of a male Sprague-Dawley rat (200-350 g), which had been sacrificed by decapitation, was dissected free of fat tissue and homogenized in 20 volumes of ice-cold 50 mM Tris HCl (pH 7.7 at 25° C.) with a Brinkmann Polytron PT-10. The homogenates were centrifuged at 48,000 g for 10 minutes, then the resulting pellets were resuspended in Tris Buffer, centrifuged as above, and resuspended in 200 volumes of binding assay buffer (50 mM Tris HCl, pH 7.7 at 25° C., 5 mM dithiothreitol, 0.1 mM bacitracin, 1.2 mM phenylmethane sulfonyl fluoride and 0.5 mM o-phenanthroline).
The supernatant was aspirated and discarded, and the pellets were counted with a Beckman Gamma 5000.

| IC50 [1] | SMILES | CCK antagonism (in words) (CCK receptor) | also measured |
| --- | --- | --- | --- |
| – | CCCN(CCC)C(=O)C(CCC(=O)O)NC(=O)c1ccccc1 (racemic) [Compound 1, reference compound] | – | gastrin antagonism (in words) (gastrin): very weak in vitro antagonists |
| 2.2 µM | CCCCCN(CCCCC)C(=O)C(CCC(=O)O)NC(=O)c1ccc(Cl)c(Cl)c1 (racemic) [Compound 2, reference compound] | – | – |
| 5.3 µM | CCCCCN(CCCCC)C(=O)C(CCC(=O)OCc1ccccc1)NC(=O)Nc1ccc(Cl)cc1 (racemic) [Compound 8, (RS)-4-[(4-chlorophenylaminocarbonyl)amino]-5-(dipentylamino)-5-oxo-1-(phenylmethyloxy)pentanoic acid] | – | IC50 [2]: 22 µM |
| – | CSCC[C@H](NC(=O)OC(C)(C)C)C(=O)N[C@@H](CC(=O)O)C(=O)N[C@@H](Cc1ccccc1)C(N)=O [Boc-Met-Asp-Phe-NH2] (Boc-Met-Asp-Phe-NH2) | can function as CCK antagonists | – |
| – | CSCC[C@H](NC(=O)[C@H](Cc1ccc(OS(=O)(=O)O)cc1)NC(=O)OCc1ccccc1)C(=O)NCC(=O)N[C@@H](Cc1c[nH]c2ccccc12)C(=O)N[C@@H](CCSC)C(=O)N[C@@H](CC(=O)O)C(N)=O [Cbz-Tyr(SO3 H)-Met-Gly-Trp-Met-Asp-NH2] (Cbz-[sY]MGWMD-NH2) | partial agonist | – |
| 3.4 µM | O=C(O)CC[C@@H](NC(=O)c1cc2ccccc2[nH]1)C(=O)N(C1CCCCC1)C1CCCCC1 [Compound 10, (R)-5-(dicyclohexylamino)-4[(1H-indol-2-ylcarbonyl)amino]-5-oxo-pentanoic acid] | – | IC50 [2]: 4.1 µM |
| – | CSCC[C@H](N)C(=O)N[C@@H](CC(=O)O)C(=O)N[C@@H](Cc1ccccc1)C(N)=O [Met-Asp-Phe-NH2] (H-Met-Asp-Phe-NH2) | can function as CCK antagonists | – |
| – | CCCC(=O)Nc1nc2c(ncn2[C@@H]2O[C@@H]3COP(=O)(O)O[C@H]3[C@H]2OC(=O)CCC)c(=O)[nH]1 [dibutyryl cyclic GMP] | most potent | – |
| – | c1cnc2c(c1)ccc1cccnc12 [o-phenanthroline] | – | effect on the 125I-CCK receptor binding assay (in words) (CCK receptor (pancreas)): no effect |
| – | O=S(=O)(F)Cc1ccccc1 [phenylmethane sulfonyl fluoride] | – | effect on the 125I-CCK receptor binding assay (in words) (CCK receptor (pancreas)): no effect |
